Literature values in US10391330B2, “Non-invasive systems and methods for in-situ photobiomodulation” (priority 2008, dated 2019).

Legend:
T cells = settings: combination with UVA radiation
[1] = clinical use

duration of skin photosensitivity [1]	SMILES	apoptosis of the treated T cells (T cells)
–	COc1c2occc2cc2ccc(=O)oc12 [Compound 8-MOP, 8-methoxypsoralen]	causes apoptosis
approximately 2 weeks	Oc1cccc(-c2c3nc(c(-c4cccc(O)c4)c4ccc([nH]4)c(-c4cccc(O)c4)c4nc(c(-c5cccc(O)c5)c5ccc2[nH]5)CC4)C=C3)c1 [Foscan, Tetra (m-hydroxyphenyl) chlorin]	–
